Reference: US20260185118A1 (priority 2023, published 2026)

Tested on: Diaphorina citri Kuwayama
Format: in vivo
Details: solution at 1 μg/L in n-hexane applied to citrus leaves, compared to solvent n-hexane, 40 min

Compound | effect on Diaphorina citri Kuwayama selection preference
C=C1CC/C=C(\C)CC[C@@H]2[C@@H]1CC2(C)C [β-caryophyllene] | significant repulsive effect
(E)-β-farnesene | significant repulsive effect
